Measured values: article PMC11650361 (Archiv Der Pharmazie, 2024)
Read-outs that look alike come from different tables or passages of the source.

Assays:
[1] = target: T1, human erythrocyte AChE (Homo sapiens, UniProt P22303); assay: biochemical; assay type: biochemical; conditions: for IC50: human erythrocyte AChE, mean ± SEM, n = 3
T1 construct: purchased Sigma-Aldrich; Milamed, Perm, Russia (supplement); host or cells: human erythrocytes

[2] = target: T2, equine serum BChE (Equus caballus, UniProt P81908); assay: biochemical; conditions: for IC50: equine serum BChE, mean ± SEM, n = 3
T2 construct: purchased Sigma-Aldrich; Milamed, Perm, Russia (supplement); host or cells: horse serum
T2 sequence (P81908 whole entry): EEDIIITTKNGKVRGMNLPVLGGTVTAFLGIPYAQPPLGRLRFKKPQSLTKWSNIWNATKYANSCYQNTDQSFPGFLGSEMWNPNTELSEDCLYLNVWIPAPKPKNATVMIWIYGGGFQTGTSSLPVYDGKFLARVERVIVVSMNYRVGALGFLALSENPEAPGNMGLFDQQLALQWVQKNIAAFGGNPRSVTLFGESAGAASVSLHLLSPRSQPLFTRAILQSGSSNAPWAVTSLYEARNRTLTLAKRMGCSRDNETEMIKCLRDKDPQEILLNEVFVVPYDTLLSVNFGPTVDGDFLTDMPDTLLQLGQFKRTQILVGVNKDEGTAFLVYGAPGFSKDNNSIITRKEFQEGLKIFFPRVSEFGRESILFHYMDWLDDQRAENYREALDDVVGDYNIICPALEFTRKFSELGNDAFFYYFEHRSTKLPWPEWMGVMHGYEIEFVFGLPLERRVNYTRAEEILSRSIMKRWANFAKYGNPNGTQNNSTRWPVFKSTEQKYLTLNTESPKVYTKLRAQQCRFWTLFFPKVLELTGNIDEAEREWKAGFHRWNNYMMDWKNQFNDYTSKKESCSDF

[3] = test system: porcine liver CES; assay: In vitro CES inhibition (4-NPA substrate); assay type: biochemical; conditions: for CES inhibition, %: % inhibition at 20 μM, n.a. = not active
Description: The esterase profile of the synthesized conjugates was determined. This included an assessment of their inhibition of cholinergic targets AChE and BChE along with a structurally related enzyme CES (EC 3.1.1.1), which hydrolyzes numerous ester‐containing drugs and is considered as an off‐target for anti‐AD agents.^[ [9], [40] ^] Human erythrocyte AChE, equine serum BChE, and porcine liver CES were used.^[ [40], [41], [42] ^]
Initially, we used a single concentration of 20 µM for all compounds.
^a All experiments were carried out in accordance with the standard protocols approved by IPAС RAS. Human erythrocyte AChE, equine serum BChE were purchased from Milamed (Perm, Russia). Porcine liver CES, substrates, and reference compounds were from Sigma-Aldrich (St. Louis, MO, USA). The activity of enzymes was measured spectrophotometrically, as described in detail in ^[1] using ATCh iodide, BTCh iodide, and 4-NPA as substrates for AChE, BChE, and CES, respectively. Experimental conditions: K,Na-phosphate buffer (100 mM), 25 °С, pH 7.5 for AChE and BChE and pH 8.0 for CES assay. Measurements were carried out on a FLUOStar Optima microplate reader (BMG Labtech, Ortenberg, Germany). Test compounds were dissolved in DMSO; final concentration of solvent in the incubation mixture was 2% (v/v).

[4] = target: T3, PAS of Electrophorus electricus AChE (EeAChE) (Electrophorus electricus, UniProt O42275); assay type: binding; conditions: 20 µM compound concentration
T3 construct: purchased Sigma-Aldrich type VI-S; host or cells: electric eel tissue
T3 sequence (O42275 24-633): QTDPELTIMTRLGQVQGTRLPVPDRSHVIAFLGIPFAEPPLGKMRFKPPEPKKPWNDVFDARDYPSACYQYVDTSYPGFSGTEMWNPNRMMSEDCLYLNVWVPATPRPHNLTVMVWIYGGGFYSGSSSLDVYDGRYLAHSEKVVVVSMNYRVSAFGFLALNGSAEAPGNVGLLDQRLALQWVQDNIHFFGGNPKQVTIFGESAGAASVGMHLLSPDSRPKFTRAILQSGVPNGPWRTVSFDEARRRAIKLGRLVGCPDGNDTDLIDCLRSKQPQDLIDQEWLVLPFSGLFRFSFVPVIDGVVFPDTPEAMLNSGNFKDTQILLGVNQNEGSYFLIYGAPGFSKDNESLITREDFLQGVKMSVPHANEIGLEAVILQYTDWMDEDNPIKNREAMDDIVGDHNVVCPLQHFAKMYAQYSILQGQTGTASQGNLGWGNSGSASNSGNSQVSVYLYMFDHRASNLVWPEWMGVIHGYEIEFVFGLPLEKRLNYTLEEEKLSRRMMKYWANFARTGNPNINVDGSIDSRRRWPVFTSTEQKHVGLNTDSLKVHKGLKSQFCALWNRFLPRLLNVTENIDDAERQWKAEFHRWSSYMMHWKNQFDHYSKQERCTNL
Description: The ability of the test compounds to competitively displace propidium was evaluated by the fluorescence method,^[ [65] ^] as described in detail in Makhaeva et al.^[ [66] ^] […] After 15 min of incubation of the test compounds at a concentration of 20 μM with a 7 μM solution of EeAChE in 1 mM Tris‐HCl buffer, pH 8.0, 25°C, propidium iodide (final concentration 8 μM) was added. Then, the solutions were incubated for 15 min and the fluorescence spectrum was recorded (530 nm (excitation) and 600 nm (emission)). […] Measurements were performed in triplicate on a FLUOStar Optima microplate reader (BMG LabTech).
The 7 μM EeAChE was incubated with the test compound at a concentration of 20 μM in 1 mM Tris-HCl buffer pH 8.0, 25 °C, for 15 min. After that, propidium iodide was added at final concentration of 8 μM. The samples were incubated for 15 min and the fluorescence spectrum (530 nm (excitation) and 600 nm (emission)) was taken. […] The measurements were carried out in triplicate on a FLUOStar Optima microplate reader. The degree of propidium displacement (% displacement) from the PAS of EeAChE was calculated by formula (1):
% Displacement = 100 – (IFAChE+ Propidium + inhibitor / IFAChE + Propidium) × 100 (1),
where IFAChE + Propidium is the fluorescence intensity of the propidium associated with AChE in the absence of the test compound (taken as 100%), and IFAChE + Propidium + inhibitor is the fluorescence intensity of the propidium associated with AChE in the presence of the test compound.

[5] = target: β‐amyloid (1–42) (Aβ42) (Homo sapiens, UniProt P05067); assay: Inhibition of Aβ42 self-aggregation (thioflavin T fluorescence); assay type: biochemical; conditions: Aβ42 50 µM, compound 100 µM; read-out: Inhibition of Aβ42 self‐aggregation, %
Sequence of β‐amyloid (1–42) (Aβ42) (P05067 672-713 limits assumed): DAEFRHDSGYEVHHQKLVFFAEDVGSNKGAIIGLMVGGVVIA
Description: Inhibition of Aβ42 self‐aggregation by test compounds was studied using the ThT fluorescence method^[ [67], [68] ^] with minor modifications as described in detail in Makhaeva et al.^[ [16] ^] Lyophilized hexamfluoroisopropanol‐pretreated Aβ42 (GenicBio Limited, 1 mg) was dissolved in DMSO to obtain a stable 500 μM solution. […] Myricetin and propidium iodide in the same concentration were used as references. […] Each assay was run in triplicate.
^c The inhibitory effect of the test compounds toward Aβ42 self-aggregation was determined using the thioflavin T (ThT) fluorescence method ^[5-7] with minor modifications as described in detail in ^[8]. Lyophilized HFIP-pretreated Aβ42 from BACHEM (Bubendorf, Switzerland) was used. […] Myricetin and propidium iodide were used as reference compounds (positive controls). Analyses were performed with a FLUOStar Optima microplate reader (LabTech, Ortenberg, Germany). The inhibition (%) of Aβ42 self-aggregation by the test compounds was calculated by the following equation: […]
where IFi and IFo are the fluorescence intensities obtained for Aβ42 in the presence and in the absence of inhibitor, respectively, after subtracting the fluorescence of respective blanks.

[6] = ABTS radical cation scavenging activity assay; conditions: for IC50: concentration reducing ABTS radical by 50%, 1 h; for ABTS^•+‐scavenging activity, TEAC: relative to Trolox, 1 h incubation, n.a. = inactive
Description: Data are given for 1 h of incubation of compounds with ABTS^•+. The AOA of the compounds was evaluated as Trolox equivalent antioxidant capacity (TEAC values) as the ratio of the slopes of the concentration–response curves, test compound/Trolox. All tests were performed at least in triplicate in three independent experiments. The IC50 values for the test compounds were also determined.

[7] = test system: HEK293T (human embryonic kidney) cells; assay: Cytotoxicity, MTT assay, HEK293T; assay type: cell-based; conditions: HEK-293T, 24 h
[8] = test system: HepG2 cells (human hepatocellular carcinoma); assay: Cytotoxicity, MTT assay, HepG2; assay type: cell-based
[9] = test system: SH‐SY5Y (human neuroblastoma) cells; assay: Cytotoxicity, MTT assay, SH-SY5Y; assay type: cell-based; conditions: 24 h
[10] = cited from earlier work
[11] = test system: porcine liver CES; design: method as in PMID 35322571; conditions: % inhibition at 20 μM; cited from earlier work
[12] = design: method as in PMID 35322571; conditions: cited from earlier work
[13] = MTT, mean ± SEM, n = 3, read-out: HEK293T IC50
[14] = HepG2, MTT, 24 h, mean ± SEM, n = 3, read-out: Hep G2 IC50
[15] = MTT, mean ± SEM, n = 3, read-out: SH‐SY5Y IC50

T1 sequence (P22303 32-617 isoform P22303-2 limits assumed): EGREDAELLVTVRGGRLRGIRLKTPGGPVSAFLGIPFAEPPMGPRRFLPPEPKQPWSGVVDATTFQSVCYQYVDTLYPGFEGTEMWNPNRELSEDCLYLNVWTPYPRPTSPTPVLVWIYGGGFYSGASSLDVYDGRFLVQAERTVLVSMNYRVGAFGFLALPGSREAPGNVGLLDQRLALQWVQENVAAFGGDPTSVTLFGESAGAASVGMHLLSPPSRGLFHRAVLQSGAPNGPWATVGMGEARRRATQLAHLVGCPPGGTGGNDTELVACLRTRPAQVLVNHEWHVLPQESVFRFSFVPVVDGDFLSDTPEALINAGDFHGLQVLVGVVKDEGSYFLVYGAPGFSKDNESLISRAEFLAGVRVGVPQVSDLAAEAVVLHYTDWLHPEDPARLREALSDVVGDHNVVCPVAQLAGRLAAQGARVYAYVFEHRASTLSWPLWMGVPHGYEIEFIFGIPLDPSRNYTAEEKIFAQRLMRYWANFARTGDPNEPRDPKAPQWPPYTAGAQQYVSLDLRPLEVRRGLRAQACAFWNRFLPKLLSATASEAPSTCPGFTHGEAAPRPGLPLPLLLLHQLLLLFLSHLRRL

SMILES | IC50 [1] [µM] | Selectivity index IC50AChE/IC50BChE [2] | IC50 [2] [µM] | CES inhibition, % [3] | Propidium displacement, % [4] [%] | inhibition at 100 µM [5] [%] | IC50 [6] [µM] | ABTS^•+‐scavenging activity, TEAC [6] | IC50 [7, 13] [µM] | IC50 [8, 14] [µM] | IC50 [9, 15] [µM] | other results
Oc1ccccc1C=NCCCCCCCCNc1c2c(nc3c1CCC3)CCCC2 [9c, 2‐[({8‐[(2,3,5,6,7,8‐Hexahydro‐1H‐cyclopenta[b]quinolin‐9‐yl)amino]octyl}imino)methyl]phenol] | 1.42 ± 0.14 | 56.8 | 0.025 ± 0.001 | 25.8 ± 0.7% | 11.6 ± 0.9 | 71.7 ± 5.1 | 29.6 ± 1.2 | 0.63 ± 0.02 | 22.2 ± 2.2 | 95.9 ± 5.4 | 63.5 ± 4.4 | 
Oc1ccccc1CNCCCCNc1c2c(nc3c1CCC3)CCCC2 [10a, 2‐[({4‐[(2,3,5,6,7,8‐Hexahydro‐1H‐cyclopenta[b]quinolin‐9‐yl)amino]butyl}amino)methyl]phenol] | 2.4 ± 0.15 | 12.1 | 0.198 ± 0.019 | 6.2 ± 0.5% | 13.6 ± 0.9 | 30.5 ± 2.4 | 10.1 ± 0.5 | 1.5 ± 0.08 | 4.49 ± 0.27 | 27.6 ± 1.3 | 90.8 ± 1.3 | ABTS^•+‐scavenging activity, TEAC ([6]; listed as 10a as): 1.5
Oc1ccccc1CNCCCCCCCCNc1c2c(nc3c1CCC3)CCCC2 [10c, 2‐[({8‐[(2,3,5,6,7,8‐Hexahydro‐1H‐cyclopenta[b]quinolin‐9‐yl)amino]octyl}amino)methyl]phenol] | 0.265 ± 0.018 | 12.0 | 0.022 ± 0.0002 | 56.3±0.3 (IC50= 10.5±0.1 µM) % | 15.8 ± 1.1 | 96.7 ± 6.7 | 10.1 ± 0.6 | 1.48 ± 0.05 | 2.33 ± 0.15 | 4.19 ± 0.2 | 10.9 ± 0.6 | AChE inhibition, times more active than amiridine [1]: about 17 times; IC50 ([3]; porcine liver CES): 10.5 ± 0.1 µM
Cl.Nc1c2c(nc3c1CCC3)CCCC2.O [Amiridine, 9‐amino‐2,3,5,6,7,8‐hexahydro‐1H‐cyclopenta[b]quinoline monohydrochloride monohydrate, reference compound] |  |  |  |  |  |  |  | 0.040 ± 0.003 |  |  |  | IC50 ([7]; read-out: HEK293T IC50): 106 ± 3 µM; IC50 ([8]; HepG2, 24 h, read-out: Hep G2 IC50): 224 ± 11.2 µM; IC50 ([9]; read-out: SH‐SY5Y IC50): 135 ± 18.2 µM; pKa of the endocyclic nitrogen atom [10]: 9.52
CCCCCCNC(=O)c1ccccc1O [compound 14, N‐hexylsalicylamide] |  |  |  |  |  |  |  |  |  |  |  | CES inhibition, % [11]: 4.9 ± 1.0%; ABTS^•+‐scavenging activity, TEAC [12]: 0.39 ± 0.04; IC50 ([12]; read-out: ABTS^•+‐scavenging activity, IC50): 46.5 ± 2.3 µM
